13 molecules from PubChem BioAssay AID330 (DTP/NCI, 2004) can be followed below.

The test has as its system P388 leukemia ip, CD2F1 mice, survival T/C. The experiment in a line: NCI In Vivo Anticancer Drug Screen. Data for tumor model P388 Leukemia (intraperitoneal) in CD2F1 (CDF1) mice. The note with it: endpoint: median survival time, higher = longer survival. The procedure, abridged: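 Mice carrying the transplanted tumor received test compound or vehicle. Survival was recorded in each group, and the value is the treated-group measurement divided by that of the vehicle-treated control group.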

[1] abbreviates: dose: 200.0 mg/kg/injection, schedule: Q01DX005 (ip), vehicle: saline with Tween-80.
The mark [2] stands for this setting: dose: 50.0 mg/kg/injection, schedule: Q01DX005 (ip), vehicle: Klucel (hydroxypropylcellulose) (HPC).
The mark [3] stands for this setting: dose: 100.0 mg/kg/injection, schedule: Q01DX005 (ip), vehicle: Klucel (hydroxypropylcellulose) (HPC).
Setting [4] is: dose: 200.0 mg/kg/injection, schedule: Q01DX005 (ip), vehicle: Klucel (hydroxypropylcellulose) (HPC).

Where “and” joins values, the source holds several entries; their conditions need not be identical. Equal values may be shown once. Inconclusive results and toxic doses are left out.

Regarding `O=C(O)[C@@H]1CCC(c2ccccc2)=N1`, the T/C runs as follows: (dose: 50.0 mg/kg/injection, schedule: Q01DX005 (ip), vehicle: distilled water + alcohol) 98 % of control; (dose: 100.0 mg/kg/injection, schedule: Q01DX005 (ip), vehicle: distilled water + alcohol) 98 % of control; (dose: 200.0 mg/kg/injection, schedule: Q01DX005 (ip), vehicle: distilled water + alcohol) 98 % of control.

On to `Cc1cc2c(=O)cc(-c3ccc(Cl)cc3)oc2c(C#N)c1C`, for which the T/C (dose: 60.0 mg/kg/injection, schedule: Q01DX005 (ip), vehicle: Klucel (hydroxypropylcellulose) (HPC)) was 89 % of control; the T/C (dose: 120.0 mg/kg/injection, schedule: Q01DX005 (ip), vehicle: Klucel (hydroxypropylcellulose) (HPC)) was 93 % of control; the T/C (dose: 240.0 mg/kg/injection, schedule: Q01DX005 (ip), vehicle: Klucel (hydroxypropylcellulose) (HPC)) is 100 % of control.

For the molecule `NS(=O)(=O)OCCCCCCCOS(N)(=O)=O`, the T/C reads like this: (dose: 6.0 mg/kg/injection, schedule: Q01DX005 (iv), vehicle: other) 109 % of control; (dose: 6.7 mg/kg/injection, schedule: Q04DX003 (ip), vehicle: other) 121 % of control; (dose: 8.98 mg/kg/injection, schedule: Q01DX005 (ip), vehicle: other) 122 % of control; (dose: 8.98 mg/kg/injection, schedule: Q01DX005 (iv), vehicle: other) 112 % of control; (dose: 10.0 mg/kg/injection, schedule: Q04DX003 (ip), vehicle: other) 119 % of control; (dose: 11.0 mg/kg/injection, schedule: Q03HX009 (ip), vehicle: other) 160 % of control. Moreover, the T/C (dose: 13.4 mg/kg/injection, schedule: Q01DX005 (iv), vehicle: other) was 118 % of control; the T/C (dose: 16.5 mg/kg/injection, schedule: Q03HX009 (ip), vehicle: other) is 171 % of control; the T/C (dose: 16.67 mg/kg/injection, schedule: Q01DX009 (ip), vehicle: other) is 168 % of control; the T/C (dose: 20.0 mg/kg/injection, schedule: Q01DX001 (iv), vehicle: other) is 105 % of control; the T/C (dose: 20.0 mg/kg/injection, schedule: Q01DX005 (ip), vehicle: other) was 150 % of control and 159 % of control; the T/C (dose: 22.5 mg/kg/injection, schedule: Q03HX003 (ip), vehicle: other) is 158 % of control. For the same molecule, the T/C runs as follows: (dose: 24.9 mg/kg/injection, schedule: Q01DX009 (ip), vehicle: other) 184 % of control; (dose: 25.0 mg/kg/injection, schedule: Q01DX005 (ip), vehicle: saline with Tween-80) 152 % of control and 163 % of control; (dose: 25.0 mg/kg/injection, schedule: Q03HX009 (ip), vehicle: other) 206 % of control; (dose: 30.0 mg/kg/injection, schedule: Q01DX001 (ip), vehicle: other) 124 % of control; (dose: 30.0 mg/kg/injection, schedule: Q01DX001 (iv), vehicle: other) 111 % of control; (dose: 30.0 mg/kg/injection, schedule: Q01DX005 (ip), vehicle: other) 161 % of control and 181 % of control. The T/C (dose: 33.3 mg/kg/injection, schedule: Q04DX003 (ip), vehicle: other) is 164 % of control; the T/C (dose: 34.0 mg/kg/injection, schedule: Q03HX003 (ip), vehicle: other) was 174 % of control; the T/C (dose: 37.0 mg/kg/injection, schedule: Q03HX009 (ip), vehicle: other) is 232 % of control; the T/C (dose: 37.2 mg/kg/injection, schedule: Q01DX009 (ip), vehicle: other) was 222 % of control; the T/C (dose: 37.2 mg/kg/injection, schedule: Q01DX009 (oral), vehicle: other) is 124 % of control; the T/C (dose: 44.0 mg/kg/injection, schedule: Q01DX005 (ip), vehicle: other) was 192 % of control. Besides, the T/C (dose: 44.89 mg/kg/injection, schedule: Q01DX005 (ip), vehicle: other) is 194 % of control; the T/C (dose: 44.9 mg/kg/injection, schedule: Q01DX001 (iv), vehicle: other) is 112 % of control; the T/C (dose: 50.0 mg/kg/injection, schedule: Q03HX003 (ip), vehicle: other) was 210 % of control; the T/C (dose: 50.0 mg/kg/injection, schedule: Q04DX003 (ip), vehicle: other) is 185 % of control; the T/C (dose: 55.6 mg/kg/injection, schedule: Q01DX009 (ip), vehicle: other) was 123 % of control; the T/C (dose: 67.0 mg/kg/injection, schedule: Q01DX001 (ip), vehicle: other) was 151 % of control. The T/C is, setting by setting: (dose: 74.8 mg/kg/injection, schedule: Q04DX003 (ip), vehicle: other) 212 % of control; (dose: 82.9 mg/kg/injection, schedule: Q01DX009 (oral), vehicle: other) 109 % of control; (dose: 100.0 mg/kg/injection, schedule: Q01DX001 (ip), vehicle: other) 164 % of control; (dose: 111.6 mg/kg/injection, schedule: Q04DX003 (ip), vehicle: other) 210 % of control; (dose: 125.0 mg/kg/injection, schedule: Q01DX005 (ip), vehicle: saline with Tween-80) 156 % of control; (dose: 150.0 mg/kg/injection, schedule: Q01DX001 (ip), vehicle: other) 205 % of control. Besides, the T/C under setting [1] was 117 % of control.

For the molecule `[Se]=P(c1ccccc1)(N1CCOCC1)N1CCOCC1`, the T/C is, setting by setting: (dose: 13.75 mg/kg/injection, schedule: Q01DX001 (ip), vehicle: Klucel (hydroxypropylcellulose) (HPC)) 96 % of control; (dose: 27.5 mg/kg/injection, schedule: Q01DX001 (ip), vehicle: Klucel (hydroxypropylcellulose) (HPC)) 112 % of control.

As for `O=C(c1ccccc1)N1CCCSC1=S`, the T/C was 101 % of control (dose: 60.0 mg/kg/injection, schedule: Q01DX005 (ip), vehicle: saline with Tween-80); 105 % of control (dose: 120.0 mg/kg/injection, schedule: Q01DX005 (ip), vehicle: saline with Tween-80); 104 % of control (dose: 240.0 mg/kg/injection, schedule: Q01DX005 (ip), vehicle: saline with Tween-80).

On to `CC(=O)N1C=CC(=C2C=CN(C(C)=O)C=C2)C=C1`, for which the T/C was 100 % of control (dose: 5.0 mg/kg/injection, schedule: Q01DX009 (ip), vehicle: saline); 88 % of control (dose: 10.0 mg/kg/injection, schedule: Q01DX009 (ip), vehicle: saline); 103 % of control (dose: 20.0 mg/kg/injection, schedule: Q01DX009 (ip), vehicle: saline).

`S=c1ncnc2c1ccc1[nH][nH]cc12`: the T/C was 88 % of control (dose: 100.0 mg/kg/injection, schedule: Q04DX002 (ip), vehicle: saline with Tween-80); 92 % of control (dose: 200.0 mg/kg/injection, schedule: Q04DX002 (ip), vehicle: saline with Tween-80); 107 % of control (dose: 400.0 mg/kg/injection, schedule: Q04DX002 (ip), vehicle: saline with Tween-80).

In the case of `CCCCCOc1cc2c(cc1C(C)c1ccc(OC)cc1)OCO2` (stereo unspecified), the T/C is, setting by setting: under setting [2], 107 % of control; under setting [3], 103 % of control; under setting [4], 98 % of control.

On to `CC(C)(Nc1ccccc1)C(=O)OC(C)(C)C(=O)Nc1ccccc1`, for which the T/C is, setting by setting: (dose: 50.0 mg/kg/injection, schedule: Q01DX005 (ip), vehicle: saline with Tween-80) 90 % of control; (dose: 100.0 mg/kg/injection, schedule: Q01DX005 (ip), vehicle: saline with Tween-80) 91 % of control; under setting [1], 91 % of control.

On to `c1cc(C2=NCCN2)ccc1Nc1ccc(-c2cc3ccc(C4=NCCN4)cc3[nH]2)cc1`, for which the T/C is 150 % of control and 165 % of control (dose: 3.75 mg/kg/injection, schedule: Q01DX005 (ip), vehicle: Klucel (hydroxypropylcellulose) (HPC)); 154 % of control and 177 % of control (dose: 7.5 mg/kg/injection, schedule: Q01DX005 (ip), vehicle: Klucel (hydroxypropylcellulose) (HPC)).

Consider `[O-]/[N+](=C\c1ccccc1)c1ccccc1`, for which the T/C (dose: 100.0 mg/kg/injection, schedule: Q04DX003 (ip), vehicle: saline with Tween-80) was 104 % of control and the T/C (dose: 200.0 mg/kg/injection, schedule: Q04DX003 (ip), vehicle: saline with Tween-80) is 99 % of control.

In the case of `CN1C(=O)C23CCCN2C(=O)C1(C)SC(=O)S3` (stereo unspecified), the T/C reads like this: (dose: 50.0 mg/kg/injection, schedule: Q01DX009 (ip), vehicle: saline) 98 % of control; (dose: 100.0 mg/kg/injection, schedule: Q01DX009 (ip), vehicle: saline) 101 % of control; (dose: 200.0 mg/kg/injection, schedule: Q01DX009 (ip), vehicle: saline) 98 % of control.

Consider `O=C(Nc1ccc(N=C(c2ccccc2)N2CCOCC2)cc1)c1ccc(C(=O)Nc2ccc(N=C(c3ccccc3)N3CCOCC3)cc2)cc1`, for which the T/C (dose: 25.0 mg/kg/injection, schedule: Q01DX005 (ip), vehicle: Klucel (hydroxypropylcellulose) (HPC)) was 101 % of control; the T/C under setting [2] was 101 % of control; the T/C under setting [3] was 93 % of control; the T/C under setting [4] is 96 % of control.
